Compound: O=C(NC1CCNCC1)c1n[nH]cc1NC(=O)c1c(Cl)cccc1Cl [AT-7519] + COc1cccc2cc(-c3nc([C@H]4CC[C@H](C(=O)O)CC4)n4ncnc(N)c34)[nH]c12 [OSI-027] (partner 0.5 µM)
Experiment: relative viability (nuclei count vs DMSO), 5 days (fraction); higher = more cells survive
Conditions: first compound 0.01 µM
How it was run: (§1)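 Relative viability is defined as nuclei in treated wells over nuclei in vehicle wells. Duplicate plates were run and medians reported. Lung cancer cell lines in 1536-well plates were dosed by pin tool one day after seeding, with one drug or with a fixed anchor-drug dose plus five library-drug doses (not always all listed) in √10 steps, and nuclei were counted after 5 days.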

Cell Line	relative viability
NCI-H2342	0.628
NCI-H1623	0.529
NCI-H727	0.68
NCI-H1650	0.779
NCI-H1993	0.569
SW 1573	0.604
NCI-H838	0.345
LCLC-103H	0.455
NCI-H520	0.254
NCI-H2126	0.668
EMC-BAC-2	0.363
NCI-H2085	0.739
HCC-366	0.769
NCI-H1666	0.825
NCI-H596	0.723
LK-2	0.182
NCI-H2087	0.729

Cell Line	relative viability
NCI-H1648	0.265
SK-MES-1	0.615
H3255	0.572
COR-L23	0.672
COR-L 105	0.6
LOU-NH91	0.738
ChaGo-K-1	0.642
NCI-H2170	0.782
NCI-H2405	0.593
HOP-62	0.857
HCC-44	0.516
LU99A	0.315
SW 900	0.489
NCI-H441	0.679
NCI-H1395	0.659
NCI-H1793	0.229

Same assay, conditions: first compound 0.03162 µM

Cell Line	relative viability
NCI-H2342	0.533
NCI-H1623	0.424
NCI-H727	0.632
NCI-H1650	0.598
NCI-H1993	0.494
SW 1573	0.659
NCI-H838	0.39
LCLC-103H	0.479
NCI-H520	0.285
NCI-H2126	0.665
EMC-BAC-2	0.343
NCI-H2085	0.662
HCC-366	0.808
NCI-H1666	0.82
NCI-H596	0.628
LK-2	0.217
NCI-H2087	0.649

Cell Line	relative viability
SK-MES-1	0.58
H3255	0.517
COR-L23	0.778
COR-L 105	0.58
LOU-NH91	0.742
ChaGo-K-1	0.556
NCI-H2170	0.685
NCI-H2405	0.655
HOP-62	0.675
HCC-44	0.493
NCI-H522	0.77
LU99A	0.248
SW 900	0.581
NCI-H441	0.603
NCI-H1395	0.618
NCI-H1793	0.254

Same assay, conditions: first compound 0.3162 µM

Cell Line	relative viability
NCI-H2342	0.591
NCI-H1623	0.432
NCI-H727	0.517
NCI-H1650	0.46
NCI-H1993	0.49
SW 1573	0.436
NCI-H838	0.276
LCLC-103H	0.46
NCI-H520	0.26
NCI-H2126	0.575
EMC-BAC-2	0.358
NCI-H2085	0.626
HCC-366	0.89
NCI-H1666	0.838
NCI-H596	0.644
LK-2	0.19
NCI-H2087	0.493

Cell Line	relative viability
NCI-H1648	0.262
SK-MES-1	0.564
H3255	0.591
COR-L23	0.459
COR-L 105	0.674
LOU-NH91	0.72
ChaGo-K-1	0.457
NCI-H2170	0.687
NCI-H2405	0.595
HOP-62	0.846
HCC-44	0.28
NCI-H522	0.609
LU99A	0.223
SW 900	0.624
NCI-H441	0.582
NCI-H1395	0.525
NCI-H1793	0.285

Same assay, conditions: first compound 1 µM

Cell Line	relative viability
NCI-H2342	0.62
NCI-H1623	0.362
NCI-H727	0.408
NCI-H1650	0.181
NCI-H1993	0.563
SW 1573	0.107
NCI-H838	0.127
LCLC-103H	0.456
NCI-H520	0.241
NCI-H2126	0.688
EMC-BAC-2	0.476
NCI-H2085	0.651
HCC-366	0.718
NCI-H1666	0.652
NCI-H596	0.754
LK-2	0.189
NCI-H2087	0.151

Cell Line	relative viability
NCI-H1648	0.293
SK-MES-1	0.332
H3255	0.508
COR-L23	0.294
COR-L 105	0.401
LOU-NH91	0.711
ChaGo-K-1	0.447
NCI-H2170	0.719
NCI-H2405	0.478
HOP-62	0.809
HCC-44	0.317
NCI-H522	0.792
LU99A	0.299
SW 900	0.424
NCI-H441	0.408
NCI-H1395	0.62
NCI-H1793	0.247

Compound: C1=CC2=C(C=C(C(=C2N=C1)O)N=NC3=CC4=C(C=C3)C=C(C=C4)S(=O)(=O)O)S(=O)(=O)O + C[C@]1(O)C[C@@H](c2nc(-c3ccc4ccc(-c5ccccc5)nc4c3)c3c(N)nccn32)C1 [Linsitinib] (partner 1 µM)
Experiment: as above
Conditions: first compound 0.08 µM
How it was run: as §1

Cell Line	relative viability
NCI-H727	0.223
EBC-1	1.04
NCI-H1703	0.865
NCI-H1993	0.757
SW 1573	0.779
NCI-H838	1.17
LCLC-103H	1.2
NCI-H520	1.1
NCI-H2126	0.72
EMC-BAC-2	0.912
NCI-H2085	1.06
Calu-6	1.08
HCC-366	0.557
NCI-H1666	0.876
NCI-H596	1.02
LK-2	0.797
NCI-H2087	1
SK-MES-1	1.17
H3255	0.95
COR-L23	1.01

From the supplement of paper PMC10307832
